For 92 compounds, melting point results are on record in a melting point compilation (Tetko et al.; mined from patent text by program, amines drawn as free bases though some values may be those of a salt).

On to `COCCNS(=O)(=O)c1ccc(Nc2nc(OCC3CCCCC3)c3nc[nH]c3n2)cc1`, for which the melting point (usually the temperature of the solid-liquid transition) lay in the range of 120 to 122 °C.
For the compound `CC(C)(C)CC(C)(C)c1ccc(O)c(-n2nc3ccccc3n2)c1`, the melting point was 101 to 103 °C.
The compound `OCC(Nc1ccnc2cc(Cl)ccc12)c1ccccc1` (configuration not stated) registered a melting point of 220 to 221 °C.
To `CC(C)(C)OC(=O)N(CCCc1ccc(Cl)cc1)C1CCCC1N` (configuration not stated) belongs 95.3 to 111 °C; to `CC1(C)NC(=O)N(c2ccc(I)c(C(F)(F)F)c2)C1=O`, 164 to 165 °C; to `C=CCN1CC(C)N(C(c2cccc(O)c2)c2ccc(C(=O)N(CC)CC)s2)CC1C` (configuration not stated), 113 to 116 °C.
`Cc1c(CC(=O)O)c2ccccc2n1-c1cc(Cl)nc(Cl)n1` displayed a melting point of 205 to 207 °C.
With `O=C(O)Cc1c(C(=O)c2ccc(Cl)cc2)[nH]c2cc(Cl)ccc12`, the melting point was in the range of 181 to 183 °C.
The compound `Cn1c(SC(C(=O)O)c2ccccc2)nc2ccccc21` (configuration not stated) displayed a melting point of 157 to 159 °C.
With `CC1CC(C)CN(S(=O)(=O)c2ccc(Cl)c(C(=O)Cl)c2)C1` (configuration not stated), the melting point fell in the range of 164 to 166 °C.
As for `O=C(O)CN1C(=O)C2(COc3cc4c(cc32)OCCO4)c2ccccc21` (configuration not stated), the melting point was in the range of 193 to 196 °C.
The result for `Cn1ncc2c(=O)n3c(nc21)SCC3(C)C` reads 188 °C; that for `CCC(=CC(COC(N)=O)=NO)C(C)[N+](=O)[O-]` (configuration not stated), 69 to 72 °C.
In turn, `CN1C(C)(C)CC(CNc2nc(NO)nc(NCC3CC(C)(C)N(C)C(C)(C)C3)n2)CC1(C)C` had a melting point of 157 to 160 °C.
Regarding `CC(C)c1ccc(N(Cc2cnn(C)c2)C(=O)C2CCCc3c(O)cccc32)cc1` (configuration not stated), the melting point turned out to be 215 °C.
The result for `Cc1c(C(=O)O)cnn1-c1nc(-c2ccc3ccccc3c2)cs1` reads 273 to 274 °C; that for `CCCC(=O)Nc1n[nH]c2cc(-c3ccc([N+](=O)[O-])cc3)ccc12`, 250 °C.
As for `CCCc1c(SCCCOc2ccc(C(C)=O)c(OCCCC(=O)OCC)c2CCC)ccc(C(C)=O)c1O`, the melting point was 65 to 66 °C.
To `CC(C)C1(C)CC(=O)CC(C)(C)N1` (configuration not stated) belongs 47 to 53 °C; to `N#Cc1ccc(OCc2ccncc2)cc1OC(C(=O)O)c1ccccc1Br` (racemic), 171 to 172 °C.
Compound `O=C(O)Cc1cccc(C(=O)c2ccccc2)c1` displayed a melting point of 101 to 103 °C.
For `CS(=O)(=O)c1cnc2c(c1)CCC(c1ccc(Cl)c(Cl)c1)O2` (configuration not stated), the melting point came to 172 °C.
The result for `CC(C)OC(=O)C(C(=O)OC(C)C)=C1SC2C(S1)N(C)CCN2C` (configuration not stated) reads 93.6 °C; that for `O=[N+]([O-])c1ccc(CN2CCC(O)CC2)cc1`, 114 to 115 °C.
The result for `O=Cc1cc([N+](=O)[O-])ccc1OC(F)(F)F` reads 32 to 34 °C; that for `COc1ccc(CN2C(=O)C(Oc3ccccc3)C2c2ccc(C(=O)O)cc2)cc1OC` (configuration not stated), 160 to 161 °C; that for `CCn1ncc2cc3c(nc21)C(Cl)c1ccccc1CC3` (configuration not stated), 107 to 110 °C.
For the compound `COc1ccc2c(c1OC)SCCC2C#N` (configuration not stated), the melting point was 116 to 118 °C.
To `CON1C(C)(C)CC(OC(=O)c2cccc(C(=O)OC3CC(C)(C)N(OC)C(C)(C)C3)c2)CC1(C)C` belongs 99 to 101 °C; to `CCOC(=O)C1=C(C)NC(C)=C(C(=O)OCC)C1c1c(Cl)cccc1Cl`, 134 to 135 °C.
As for `OCC1(c2ccccc2)CCN(CCC(c2ccccc2)(c2ccccc2)c2ccccn2)CC1`, the melting point was 148 to 151 °C.
The result for `CC(=O)c1ccc(S(=O)(=O)N2CCN(C)CC2)cc1` reads 118 to 119 °C; that for `O=C(O)C(=O)NCCC(F)=C(F)F`, 95 to 100 °C.
Compound `COC(=O)C(C(=O)OC)C(Cc1c(N)cccc1C(F)(F)F)c1ccc(OC)cc1` (configuration not stated) showed a melting point of 111 to 113 °C.
The result for `Cc1nc(N)nc(N)c1-c1cccc(Cl)c1Cl` reads 245 to 247 °C; that for `COC(=O)c1ccc(CN2CCC(N)CC2)nc1`, 173 to 175 °C.
The result for `CNCC1Cc2cc(-c3ccccc3)cc(-c3ccccc3OC)c2O1` (configuration not stated) reads 140 to 143 °C; that for `O=C(COc1ccc2c(-c3ccccc3F)noc2c1Br)NO`, 165 to 167 °C.
To `CC(C)(C)c1ccc([PH](=O)c2ccc(C(C)(C)C)cc2)cc1` belongs 142 °C; to `Cc1cc(Cc2cnc(N)nc2N)cc(C)c1N(C)C`, 162 to 163 °C.
`ON=C1CCCc2occ(-c3cccc(Cl)c3)c21` showed a melting point of 157 to 158 °C.
`CCNC(=O)c1occc1[Si](C)(C)C`: the melting point lay within 69 to 72 °C.
To `c1ccc(C2COc3ccccc3C2)cc1` (configuration not stated) belongs 54 to 56 °C; to `CCOc1cc(-c2cc(C(F)(F)F)n3ncc(C(=O)Nc4nc(C)c(S(=O)(=O)NC(C)(C)CO)s4)c3n2)ccc1C(F)(F)F`, 276 °C; to `Nc1nc2c(c(=O)[nH]1)n(Cc1ccccc1)c(=O)n2C1OC(CO)C(O)C1O` (configuration not stated), 175 °C.
For `Cc1nnc(-c2ccnc(Nc3ccccn3)c2)o1`, the melting point fell in the range of 196 to 197 °C.
For `CN1C(=O)C(C(C)(C)C)NNC1=S` (configuration not stated), the melting point turned out to be 214 °C.
Compound `CCCCCOC(=O)C(N)C=CCP(=O)(O)O` (configuration not stated) returned a melting point of 160 to 161 °C.
To `BrCc1nc2cc3ccccc3cc2nc1CBr` belongs 190 to 191 °C.
The result for `Cc1c(C(=O)c2ccccc2)c(NC(=O)CI)cn1C` reads 135 to 137 °C; that for `CCc1nc(NC(=O)C2=C(O)c3ccc4ccccc4c3S(=O)(=O)N2C)sc1C`, 233 to 234 °C.
In turn, `CCOC(=O)/C=C/c1cc(O)ccc1Br` came in with a melting point of 96 to 98 °C.
On to `CCCCn1c(=S)[nH]c2sccc2c1=O`, for which the melting point is 200 to 203 °C.
To `CC(Cc1c[nH]c2ccccc12)C1CCNCC1` (configuration not stated) belongs 150 °C.
The compound `Cc1nc(N)nc(N)c1-c1ccc(F)cc1F` showed a melting point of 291 to 296 °C.
The result for `C/C(=C\c1ccc(OC(C)C)cc1Oc1ncc(C(F)(F)F)cc1Cl)C(=O)NS(=O)(=O)NCCc1ccccc1` reads 147 to 148 °C.
Regarding `Cn1c(NC(=N)N)nc2ccccc21`, the melting point was in the range of 178 to 179 °C.
Turning to `CCCn1c(-c2ccc3c(c2)OCO3)nc2ccccc21`, the melting point fell in the range of 77.5 to 78 °C.
To `FC(F)(F)c1ccc2nc(C3CCN(c4ncccc4Cl)CC3)[nH]c2c1` belongs 74 °C; to `CC(=O)NC1CSc2ccccc2NC1=O` (configuration not stated), 283 to 286 °C.
To `COc1ccc(C)cc1NC(=O)Nc1ccc(C2=CCN(C(=O)Nc3ccc(OCC(O)CO)cc3C(F)(F)F)CC2)cc1` (configuration not stated) belongs 135 to 137 °C.
To `N#Cc1ccc(Cn2c(N3CCC(CNc4nccc(O)n4)CC3)nc3ccccc32)cc1` belongs 198 °C.
In turn, `O=C1CCN(Cc2ccc3c(c2)OCO3)CC1C(c1ccccc1)c1ccccc1` (configuration not stated) came in with a melting point of 113 to 114 °C.
As for `CON=CC1=CCCN(C(=O)OCC(=O)N2CCCCC2)C1`, the melting point is 93 to 94 °C.
Turning to `N#Cc1cnc2sc(-c3ccccc3)cc2c1Cl`, the melting point is 202 to 204 °C.
To `CCc1cn(C2CC(O)C(CN=[N+]=[N-])O2)c(=O)nc1NC(=O)c1ccccc1` (configuration not stated) belongs 125 to 126 °C; to `COC(=O)c1nc(-c2cc(OC)c(Cl)cc2F)cc(NC(C)=O)c1Cl`, 180 to 182 °C; to `Nc1cccc(-c2ccnc3c(Br)cnn23)c1`, 120 to 121 °C.
The result for `CC(C)(O)c1cc(Br)ccc1N` reads 62 to 63 °C.
The result for `O=C1c2ccccc2C(=O)C1(O)c1ccccc1O` reads 155 to 159 °C; that for `Cc1cnc(CCl)n2c1c(CCCl)c1ccccc12`, 160 to 161 °C.
Regarding `Cc1cc(C#N)cc(CBr)c1`, the melting point was 80 to 81 °C.
For `C=CCn1c(-c2ccccc2[N+](=O)[O-])nc2ccccc21`, the melting point fell in the range of 81.5 to 83 °C.
As for `CCCCCCC(=O)COS(=O)(=O)c1ccc(OCC)cc1`, the melting point was in the range of 38 to 39 °C.
The result for `ClCn1nnc2ccccc21` reads 136 °C; that for `Cc1ccc(S(=O)(=O)OCCn2c([N+](=O)[O-])cnc2C=CN(C)C)cc1`, 116 to 118 °C.
On to `CCCN1Cc2cscc2Nc2ccccc21`, for which the melting point was 78 to 79 °C.
To `C[C@@H](c1ccc(/C=C/c2ccnn2C)cc1)[C@](O)(Cn1cncn1)c1ccc(F)cc1F` belongs 81 to 83 °C; to `NC(=O)N(O)Cc1ccc(OCCc2csc(-c3ccc(C(F)(F)F)cc3)n2)cc1`, 146 to 147 °C; to `FC(F)(F)c1cc(CO[C@@H]2CCCN(Cc3nc4ccccc4o3)[C@@H]2c2ccccc2)cc(C(F)(F)F)c1` (relative stereo), 95 to 97 °C.
To `CCOC(=O)c1cc(Cl)c(S(C)(=O)=O)c(-c2cc(C)no2)c1C` belongs 126 to 129 °C; to `NC(=S)c1sc(-c2ccccc2)nc1N`, 164 to 167 °C; to `O=C(O)c1cccc([N+](=O)[O-])c1NCc1ccccc1Cl`, 164 °C.
Compound `Cc1cc(CN2CCN(c3ccc(C(=O)NC4CC4)cc3Cl)CC2)cc2c1OC(C)C(=O)N2` (configuration not stated) gave a melting point of 252 to 255 °C.
As to `CC(=O)NCC1CC(c2ccc(F)c(F)c2)=NO1` (configuration not stated), the melting point lay in the range of 136 to 137 °C.
`CCN(CC)C(=O)C=C1C=C(C(C)(C)C)C(=O)C(C(C)(C)C)=C1` yielded a melting point of 109 to 110 °C.
The result for `CSc1ccc2cc(O)ccc2c1` reads 120 to 122 °C; that for `N=C(N)c1ccc2cc(OC(=O)CCCCCNC(=O)OCc3ccccc3)ccc2c1`, 119 to 122 °C.
Consider `Cc1cc2c(c(-c3cc(Cl)ccc3Cl)c1)OC(CN)C2` (configuration not stated), for which the melting point lay in the range of 155 to 156 °C.
The compound `O=C1C(=Cc2cccc(C(F)(F)F)c2)SC(=S)N1N=c1sc2ccccc2s1` registered a melting point of 268 to 269 °C.
With `CC(C)C[C@H](NC(=O)OCc1ccccc1)C(=O)N[C@@H](Cc1ccccc1)C(=O)CSCCCl`, the melting point was in the range of 77 to 80 °C.
In the case of `CCCCCCCCCCCCCCCCOc1cc(OC)c(N)cc1OC`, the melting point amounted to 61 °C.
